Results on 7 molecules are retold here after patent US12252712B2, “Use of engineered liver tissue constructs for modeling liver disorders” (Organovo, Inc., priority 2017, dated 2025).

Assay type in all cases: cell-based, human
Data set [1] relates to bioprinted liver tissue construct. The experiment in a line: Steatosis induction in bioprinted liver tissue constructs (H&E, PLIN-5, Oil Red O). The source says: 3D bioprinted liver tissues comprised of cryopreserved primary human hepatocytes (Life Technologies, Carlsbad, CA, USA), hepatic stellate cells (ScienCell; Carlsbad, CA, USA), and HUVEC cells (Becton Dickinson; Tewksbury, MA, USA) were bioprinted directly into 24-well Transwell plates (FIG. 20A) using the Organovo NovoGen Bioprinter Instrument (Organovo, San Diego, CA, USA).
Briefly, hepatic stellate cells and HUVEC cells were propagated per the manufacturer's instructions prior to tissue fabrication. Cryopreserved hepatocytes were thawed and prepared for use per the manufacturer's instructions. Separate high density bioinks comprising parenchymal cells (100% cellular paste, generated via compaction having hepatocyte cells) or nonparenchymal cells (150e6 cells/mL of endothelial cells and hepatic stellate cells formulated in hydrogel) were prepared and loaded into separate heads of the NovoGen Bioprinter Instrument within a standard biosafety cabinet. A computer script was then executed to deposit the bioinks in a two-compartment planar geometry (2 mm^2×0.5 mm) onto the membranes of standard 24-well 0.4 μm transwell culture inserts (Corning, Tewksbury, MA USA) via continuous deposition microextrusion with the non-parenchymal cells comprising the border regions of each compartment and the parenchymal cells filling each compartment. Following fabrication, the tissues were fed daily with 600 μL of 3D Liver Tissue Media, consisting of DMEM supplemented with Primary Hepatocyte Maintenance Supplements (Life Technologies, Carlsbad, CA, USA) and EGM-2 (Lonza, Basel, Switzerland), and incubated at 37° C. under humidified atmospheric conditions supplemented with 5% CO2. Tissues were allowed to mature in culture for at least three days following fabrication prior to initiation of experimentation, and were substantially free of pre-formed scaffold at the time of use. For the one month timecourse, tissues were fed daily for a total of 28 days post-fabrication.
The bioprinted liver tissue construct of Example 6 was treated with nutrient-mediated accumulation to induce a steatosis phenotype. Specifically, to induce steatosis, a first liver tissue construct was treated with palmitic acid (PA) of varying concentrations (200 uM PA or 500 uM PA) daily for 3 weeks in the presence of high glucose media (DMEM-HG). A second liver tissue construct was treated with a 5% and 10% lipid mix of oleic acid (OC) to palmitic acid (PA) at a ratio of 2:1 daily for 3 weeks in the presence of high glucose media (DMEM-HG). Optionally, insulin or genipin (1 uM or 5 uM) can be used to stimulate fatty acid uptake into hepatocytes and enhance the fatty phenotype. […]
The technical challenge is to make a 3D, bioprinted liver tissue construct having the disorder without adversely affecting hepatocyte function or tissue health (albumin, LOH activity, ALT), which most closely recapitulates the benign nature of steatosis commonly observed in clinical steatosis. Tissue health were assessed at 7 day intervals using biochemical assays that measure hepatocellular function (i.e., albumin) and injury (i.e., LOH and ALT) with n≥5 per treatment group. Greater than 5% fatty infiltrate into hepatocytes is considered steatotic; therefore, morphometric and biochemical assays were conducted to quantify hepatic lipid content. Tissue morphology and extracellular matrix (ECM) deposition were assessed using H&E and Trichrome staining, respectively, at 7 day intervals. […]

Data set [2] deals with immune competent bioprinted liver tissue constructs. The experiment in a line: NASH induction in bioprinted liver tissue constructs, histology (H&E, trichrome, desmin/α-SMA, CK18).
Experimental: Kupffer cells (KCs) were added to the parenchymal region in the bioprinted liver tissue construct of Example 6.
Separate high density bioinks comprising parenchymal cells (100% cellular paste, generated via compaction having human hepatocyte cells and human Kupffer cells) or nonparenchymal cells (150e6 cells/mL of endothelial cells and hepatic stellate cells formulated in hydrogel) were prepared and loaded into separate heads of the NovoGen Bioprinter™ Instrument within a standard biosafety cabinet. A computer script was then executed to deposit the bioinks in a two-compartment planar geometry (2 mm^2×0.5 mm) onto the membranes of standard 24-well 0.4 μm transwell culture inserts (Corning, Tewksbury, MA USA) via continuous deposition microextrusion with the non-parenchymal cells comprising the border regions of each compartment and the parenchymal cells filling each compartment.
Here, the liver tissue construct having KCs was treated with 100 μg/ml of LPS and 500 uM palmitic acid daily for 21 days. LPS was used to activate the KCs in order to initiate inflammation. In turn, activated KCs release factors that activate hepatic stellate cells, which initiate fibrosis. […] Untreated tissues with and without KCs were used as controls.
The subject of the next data set is bioprinted liver tissues. Description: Drug safety: alanine transferase (ALT) in culture medium of bioprinted liver tissues. As to conditions: diseased (NASH-induced with 12.5 mM fructose and 500 uM PA) tissue treated with OCA versus non-diseased tissue. Here is the method:
The assessment of drug safety was also investigated using the bioprinted liver tissue constructs. Non-diseased (vehicle-treated) or diseased (NASH-induced with 12.5 mM fructose and 500 uM PA) bioprinted liver tissues were treated with OCA, followed by measurement of alanine transferase (ALT) in the culture medium, a liver enzyme elevated with hepatocellular injury. […] Significance was determined by One-way ANOVA with Dunnets Multiple Comparisons Test, with the increase in ALT levels for diseased tissue following OCA treatment having a P<0.0001 as compared to diseased tissue without OCA treatment. This provides a proof of concept for application of the NASH model in assessment of differential toxicity.

Data set [3] relates to bioprinted liver tissue constructs. The experiment in a line: Caspase cleaved CK18 fragments (apoptosis) in bioprinted liver tissue constructs.
In data set [4] the test system is bioprinted hepatic stellate cell tissues. Description: Stimulation of bioprinted hepatic stellate cell tissues with TGF-β1. Here is the method:
Cylindrical bio-ink comprising relevant heterogeneous (i.e., polytypic) cell populations were prepared. Physiologically-relevant populations (e.g., hepatic stellate cells (hSC) and human aortic endothelial cells (EC)) of cells were combined at specific ratios to generate proper bio-ink. Cells were maintained and propagated under standard laboratory conditions and cells were cultured in media either purchased from the same vendor as the cells, or media comprising components typically found in the primary literature to be conducive to standard cell culture practices for those particular cell types. Cell processing for bio-ink preparation was as follows: briefly, cells were liberated from standard tissue culture plastic by washing with cation-free phosphate buffered saline (PBS) and then exposed to 0.1-0.05% trypsin (Invitrogen). Liberated cells were then washed in serum-containing media, collected, counted, and combined in an appropriate ratio for the stimulation assay or experiment being conducted, and pelleted by centrifugation. Supernatant was then removed and the cell pellet was aspirated into a glass microcapillary, which was then submerged in complete media for approximately 15 to 20 minutes. This cylindrical bio-ink structure was then extruded into a non cell-adherent hydrogel mold, containing linear channels and held for 2 to 18 hours. Cylindrical bio-ink containing hSC: EC was then used to fabricate bioprinted tissue constructs and maintained and/or matured in a humidified chamber. Tissue segments were fabricated with initial dimensions of 1.25 mm×8 mm×0.25 mm (W×L×H). […]
The bioprinted neotissues were then submerged in serum-containing complete cell culture media and placed in a standard humidified chamber, supplemented with 5% CO2 for maturation. […] The bioprinted tissues were evaluated for characteristics such as, but not limited to for tissue morphology, cell organization, extracellular matrix production, cell proliferation, cell viability, and construct integrity. […]

Data set [5] has as its system bioprinted liver tissue construct with Kupffer cells. The experiment in a line: Inflammatory cytokine release from bioprinted liver tissue constructs. As to conditions: co-treatment of LPS at 1 ug/mL with NASH induction, 14 days (FIG. 33). Here is the method: Tissue health were assessed at 7 day intervals using biochemical assays on spent media that measure hepatocellular function as outlined in Aim 1 (n≥5/group). Histological endpoints used to assess tissue morphology and composition (H&E, CD31, Desmin, E-cadherin, Albumin), ECM deposition (trichrome), hepatic stellate cell activation (desmin, a-smooth muscle actin ratio), lipid vacuoles (perilipin) and lipid content (Oil red 0) were measured at weekly intervals. In order to determine baseline cytokine production in response to lipid treatment, inflammatory cytokine release were measured at 7 day intervals via chemiluminescence with the V-Plex Pro-Inflammatory Panel (Meso Scale Discovery, Rockville, MD), which measures TNF-α, IL-113, IL-6, IL-8, IL-4, IL-2, IL-13, IL-12p70, IL-10, and interferon-y (IFN-y).

Turning to `COC(=O)C1=CO[C@@H](O)[C@@H]2C(CO)=CC[C@H]12` [Genipin], the “lipid accumulation fold change (Oil Red O, Image J)” value in data set [1] (21 days, 5 μM Genipin added to 500 μM PA, vs 500 μM PA alone) is on record as “did not further increase lipid accumulation”.
With `CCCCCCCC/C=C\CCCCCCCC(=O)O` [OA, Oleic Acid], in data set [2] (7 days, 1 mM (FIG. 28A)), the “fibrosis (TCM)” value was “less fibrosis” and the “macrovesicular steatosis (H&E)” value is “increased incidence of macrovesicular steatosis”. The “lipid droplet (LD) size” value in data set [1] (14 days of treatment (FIG. 27)) is reported as “larger sizes of LD's”.
With `CC[C@H]1[C@@H](O)[C@@H]2[C@H](CC[C@]3(C)[C@@H]([C@H](C)CCC(=O)O)CC[C@@H]23)[C@@]2(C)CC[C@@H](O)C[C@@H]12` [OCA, Obeticholic Acid], in the data set on bioprinted liver tissues, the “alanine transferase (ALT) in the culture medium” value is “increased ALT”.
As to `O=C(CO)[C@@H](O)[C@H](O)[C@H](O)CO` [fructose], the “fibrosis (TCM)” value is on record as “increased fibrosis” in data set [2] (14 days, fructose 20 mM, OA or OA:PA 0.5 mM, vs controls (FIG. 32)) and “increased fibrosis” in data set [2] (21 days, fructose 12.5 mM, PA 0.5 mM, vs controls (FIG. 31)).
Turning to `CCCCCCCCCCCCCCCC(=O)O` [palmitic acid], in data set [2] (7 days, 1 mM (FIG. 28A)), the “fibrosis (TCM)” value is reported as “increased incidence” and the “putative ballooned hepatocytes (H&E)” value was “increased incidence of putative ballooned hepatocytes”. The “caspase cleaved cytokine (CK) 18 fragments” value in data set [3] (7 days, 1 mM, vs all other FFA treatments and untreated controls (FIG. 28B)) is “significantly higher levels”. Also, in data set [3] (FIG. 28(B)), the cytotoxicity result was “increased cytotoxicity”. Further, the “steatotic phenotype (incidence and size of lipid droplets, PLIN 5 staining)” value in data set [1] (200 μM and 500 μM, daily for 21 days, vs untreated controls) was “induces a steatotic phenotype”. In addition, the “lipid accumulation fold change (Oil Red O, Image J)” value in data set [1] (21 days, 500 μM vs 200 μM (FIG. 25B)) is on record as “greater accumulation of lipid droplets”. Besides, in data set [1] (21 days, 200 and 500 uM, vs controls (FIG. 22)), the “lipid accumulation (Oil Red O, morphometric quantification)” value is given as “significant dose-dependent increase in lipid accumulation”.
With “TGF-β1: cytokine used to elicit a tissue-specific response”, in data set [4] (0-50 ng/mL (FIG. 15)), the “cell density (Trichrome)” value was “dramatic decreases in cell density”; the “collagen deposition and construct size (Trichrome)” value is “increases in collagen deposition and construct size”. Also, in data set [4] (increasing concentrations 0, 1, 10, 50 ng/mL (FIG. 15)), the “tissue outgrowth formation (gross observation)” value is given as “increases in tissue outgrowth formation”.
With lipopolysaccharide [LPS], the putative hepatocellular ballooning entry in data set [2] (21 days of PA and fructose (12.5 mM) with constitutive 10 ug/mL treatment, vs controls (FIG. 43)) is recorded as “also observed”. Also, the “fibrosis and hepatocellular ballooning” value in data set [2] (21 days of PA and fructose (12.5 mM) with constitutive 100 ug/mL LPS (FIG. 43)) is listed as “high degree of fibrosis with putative hepatocellular ballooning”. Besides, the “cytokine levels (IL-10, IL-1β, TNF-α, IL-6)” value in data set [5] is recorded as “significantly increased above NASH induction only”.
